In US20240293379A1, “THERAPEUTIC AGENT FOR CANCER OF PATIENT WITH DECREASE IN RB1 FUNCTION USING MYT1 INHIBITOR AND CHEMOTHERAPEUTIC AGENT IN COMBINATION, AND TREATMENT METHOD THEREOF” (Chugai Seiyaku Kabushiki Kaisha, priority 2022, published 2024):
Read-outs that look alike come from different tables or passages of the source.

Tested on: HOP-62
Experiment: Pemetrexed cytotoxicity test upon suppression of expression of MYT1
Format: cell-based
Conditions: Homo sapiens, HOP-62 (RB1 wild-type), 7 days
Protocol: Thereafter, the plates were shaken to transfect each siRNA at a final concentration of 10 nM.
The −Log 2 value of fold change of IC50 and the maximum value of Bliss score, which are indexes of the combination effect, were calculated by comparing with the actually obtained cell survival curve, and described in Table 6 (see Non Patent Literature 9).

Nc1nc2[nH]cc(CCc3ccc(C(=O)N[C@@H](CCC(=O)O)C(=O)O)cc3)c2c(=O)[nH]1 [pemetrexed]
IC50 (read-out: IC50 of pemetrexed, MYT1 #16, MYT1 siRNA #16 10 nM): 98.1 nM
IC50 (read-out: IC50 of pemetrexed, MYT1 #18, MYT1 siRNA #18 10 nM): 91.9 nM
IC50 (read-out: IC50 of pemetrexed, NT, negative control siRNA 10 nM): 175 nM
